assay: Fluorescence spectrum / intensity of dye solutions, dye complexes and microsphere dispersions (multi-function microplate reader, λex=730 nm); type: physicochemical; conditions: aqueous solution
Experimental: 0.5 mg of indocyanine green (Dianogreen Injection) (ICG, Jeil Pharmaceutical Co., Ltd.) as a near-infrared fluorescent dye was dissolved in 1 mL of distilled water, and then diluted with distilled water to prepare an indocyanine green solution at a concentration of 30 μM. For the indocyanine green/human serum albumin (HSA, SK Plasma) complex for comparison of fluorescence signals with the indocyanine green solution, 0.5 mg of indocyanine green powder was dissolved in a mixed solution of 0.214 mL of human serum albumin solution (20% concentration) and 0.786 mL of distilled water, and then diluted with distilled water to prepare an indocyanine green/human serum albumin complex (ICG-HSA) at a concentration of 30 μM. To compare fluorescence spectra, 200 μL of each prepared solution was aliquoted and placed in a 96-well plate, and the fluorescence spectrum (λex=730 nm) was measured using a multi-function microplate reader (SPARK, Tecan Trading AG, Zurich, Switzerland).
(§1) To compare fluorescence signals of the prepared the microspheres and the indocyanine green/human serum albumin complex, the same concentration of indocyanxhine green complex solution and dispersion of microparticles were prepared. […] Using the information on the content of indocyanine green in PLGA microspheres evaluated by the quantification, a dispersion was prepared by adding indocyanine green to 0.3 mL of distilled water so that the concentration was 30 μM. To compare fluorescence spectra, 200 μL of each of the prepared solution and dispersion was aliquoted and placed in a 96-well plate, and the fluorescence spectrum (λex=730 nm) was measured using a multi-function microplate reader (SPARK, Tecan Trading AG, Zurich, Switzerland).
as §1, with “To compare the fluorescence signals” for “To compare fluorescence signals”, “the prepared microspheres and” for “the prepared the microspheres and”, “multi-function microplate reader. Fluorescence images were analyzed using fluorescence imaging equipment (IVIS Lumina XR, Xenogen Corporation-Caliper, CA, USA) after putting 300μl of the same solution into a microtube (λex=780/20 nm, λem=845/40 nm). […]” for “multi-function microplate reader (SPARK, Tecan Trading AG, Zurich, Switzerland).”

Compound	emission peak [nm]
C[N+]1=C(C=CC2=CC(=CC=C3N(CCCCCC(=O)O)c4ccc(S(=O)(=O)[O-])cc4C3(C)C)CCC2)C(C)(C)c2cc(S(=O)(=O)[O-])ccc21.[K+] [Cy7, sulfo-cyanine7 carboxylic acid]	780
C[N+]1=C(C=CC2=CC(=CC=C3N(CCCCCC(=O)[O-])c4ccc5c(S(=O)(=O)[O-])cc(S(=O)(=O)[O-])cc5c4C3(C)C)CCC2)C(C)(C)c2c1ccc1c(S(=O)(=O)O)cc(S(=O)(=O)[O-])cc21.[K+].[K+].[K+] [Cy7.5, sulfo-cyanine7.5 carboxylic acid]	810
CC1(C)C(/C=C/C2=C(Oc3ccc(S(=O)(=O)O)cc3)C(=C/C=C3/N(CCCCS(=O)(=O)O)c4ccc(S(=O)(=O)[O-])cc4C3(C)C)/CCC2)=[N+](CCCCCC(=O)O)c2ccc(S(=O)(=O)O)cc21 [IRDye 800CW, IRDye® 800CW carboxylate]	806
Flamma774 carboxylic acid	812

Reference: US20240390526A1, “NEAR-INFRARED FLUORESCENT DYE-LOADED POLYMER MICROSPHERES FOR LABELLING LESIONS, AND FORMULATION THEREOF” (National Cancer Center, priority 2022, published 2024)
